Results as given in patent US7625841B2, “Substituted thiene-3-ylsulphonylamino(thio)carbonyltriazolin(ethi)ones” (Bayer CropScience AG, priority 2001, dated 2009).

What was measured:
Format in all cases: in vivo
Alopecurus [1] = assay: Post-emergence test/greenhouse; settings: greenhouse, application rate 15 gai/ha, rated after three weeks, 0%=no effect, 100%=total destruction
Method: (§1) • Solvent: 5 parts by weight of acetone • Emulsifier: 1 part by weight of alkylaryl polyglycol ether
(§2) To produce a suitable preparation of active compound, 1 part by weight of active compound is mixed with the stated amount of solvent, the stated amount of emulsifier is added and the concentrate is diluted with water to the desired concentration.
(§3) Test plants of a height of 5-15 cm are sprayed with the preparation of active compound such that the particular amounts of active compound desired are applied per unit area. The concentration of the spray liquor is chosen such that the particular amounts of active compound desired are applied in 1000 l of water/ha.
(§4) After three weeks, the degree of damage to the plants is rated in % damage in comparison to the development of the untreated control.
(§5) The figures denote: • 0%=no effect (like untreated control) • 100%=total destruction

Avena fatua [2] = assay: Post-emergence test/greenhouse; settings: greenhouse, application rate 15 gai/ha, rated after three weeks, 0%=no effect, 100%=total destruction
Method: as §1, §2, §3, §4, §5

Digitaria [3] = assay: Post-emergence test/greenhouse; settings: greenhouse, application rate 15 gai/ha, rated after three weeks, 0%=no effect, 100%=total destruction
Method: as §1, §2, §3, §4, §5

Lolium [4] = assay: Post-emergence test/greenhouse; settings: greenhouse, application rate 15 gai/ha, rated after three weeks, 0%=no effect, 100%=total destruction
Method: as §1, §2, §3, §4, §5

Alopecurus [5] = assay: Pre-emergence test/greenhouse; settings: greenhouse, application rate 15 gai/ha, rated after three weeks, 0%=no effect, 100%=total destruction
Method: as §1
(§6) To produce a suitable preparation of active compound, 1 part by weight of active compound is mixed with the stated amount of solvent, the stated amount of emulsifier is added and the concetrate is diluted with water to the desired concentration.
(§7) Seeds of the test plants are sown in normal soil. After 24 hours, the soil is sprayed with the preparation of active compound such that the particular amount of active compound desired is applied per unit area. The concentration of active compound in the spray liquor is chosen such that the particular amount of active compound desired is applied in 1000 litres of water per hectare.
(§8) After three weeks, the degree of damage to the plants is rated in % damage in comparison to the development of the untreated control. The figures denote: • 0%=no effect (like untreated control) • 100%=total destruction

Lolium [6] = assay: Pre-emergence test/greenhouse; settings: greenhouse, application rate 15 gai/ha, rated after three weeks, 0%=no effect, 100%=total destruction
Method: as §1, §6, §7, §8

Matricaria = assay: Pre-emergence test/greenhouse; settings: greenhouse, application rate 15 gai/ha, rated after three weeks, 0%=no effect, 100%=total destruction
Method: as §1, §6, §7, §8

Stellaria = assay: Pre-emergence test/greenhouse; settings: greenhouse, application rate 15 gai/ha, rated after three weeks, 0%=no effect, 100%=total destruction
Method: as §1, §6, §7, §8

maize = assay: Pre-emergence test/greenhouse; settings: greenhouse, application rate 15 gai/ha, rated after three weeks, 0%=no effect, 100%=total destruction
Method: as §1, §6, §7, §8

soybeans = assay: Pre-emergence test/greenhouse; settings: greenhouse, application rate 15 gai/ha, rated after three weeks, 0%=no effect, 100%=total destruction
Method: as §1, §6, §7, §8

wheat = assay: Pre-emergence test/greenhouse; settings: greenhouse, application rate 15 gai/ha, rated after three weeks, 0%=no effect, 100%=total destruction
Method: as §1, §6, §7, §8

weeds [7] = assay: Post-emergence test, summary for weeds
Method: as §1, §2, §3, §4, §5

[8] = tested on: crop plants such as, for example, maize, oilseed rape and wheat; assay: Post-emergence test, summary for crop plants
Method: as §1, §2, §3, §4, §5

weeds [9] = assay: Pre-emergence test, summary for weeds
Method: as §1, §6, §7, §8

[10] = tested on: crop plants, such as, for example, maize, soyabean and wheat; assay: Pre-emergence test, summary for crop plants
Method: as §1, §6, §7, §8

Bromus [11] = assay: Post-emergence test/greenhouse; settings: greenhouse, application rate 15 gai/ha, rated after three weeks, 0%=no effect, 100%=total destruction
Method: as §1, §2, §3, §4, §5

Echinochloa = assay: Post-emergence test/greenhouse; settings: greenhouse, application rate 15 gai/ha, rated after three weeks, 0%=no effect, 100%=total destruction
Method: as §1, §2, §3, §4, §5

Setaria [12] = assay: Post-emergence test/greenhouse; settings: greenhouse, application rate 15 gai/ha, rated after three weeks, 0%=no effect, 100%=total destruction
Method: as §1, §2, §3, §4, §5

Amaranthus = assay: Pre-emergence test/greenhouse; settings: greenhouse, application rate 15 gai/ha, rated after three weeks, 0%=no effect, 100%=total destruction
Method: as §1, §6, §7, §8

Digitaria [13] = assay: Pre-emergence test/greenhouse; settings: greenhouse, application rate 15 gai/ha, rated after three weeks, 0%=no effect, 100%=total destruction
Method: as §1, §6, §7, §8

Setaria [14] = assay: Pre-emergence test/greenhouse; settings: greenhouse, application rate 15 gai/ha, rated after three weeks, 0%=no effect, 100%=total destruction
Method: as §1, §6, §7, §8

Solanum = assay: Pre-emergence test/greenhouse; settings: greenhouse, application rate 15 gai/ha, rated after three weeks, 0%=no effect, 100%=total destruction
Method: as §1, §6, §7, §8

Bromus [15] = assay: Pre-emergence test/greenhouse; settings: greenhouse, application rate 15 gai/ha, rated after three weeks, 0%=no effect, 100%=total destruction
Method: as §1, §6, §7, §8

Polygonum = assay: Pre-emergence test/greenhouse; settings: greenhouse, application rate 15 gai/ha, rated after three weeks, 0%=no effect, 100%=total destruction
Method: as §1, §6, §7, §8

Xanthium = assay: Pre-emergence test/greenhouse; settings: greenhouse, application rate 15 gai/ha, rated after three weeks, 0%=no effect, 100%=total destruction
Method: as §1, §6, §7, §8

Avena fatua [16] = assay: Pre-emergence test/greenhouse; settings: greenhouse, application rate 15 gai/ha, rated after three weeks, 0%=no effect, 100%=total destruction
Method: as §1, §6, §7, §8

| Compound | degree of damage to the plants, Alopecurus (Alopecurus [1]) | degree of damage to the plants, Avena fatua (Avena fatua [2]) | degree of damage to the plants, Digitaria (Digitaria [3]) | degree of damage to the plants, Lolium (Lolium [4]) | degree of damage to the plants, Alopecurus (Alopecurus [5]) | degree of damage to the plants, Lolium (Lolium [6]) | degree of damage to the plants, Matricaria (Matricaria) | degree of damage to the plants, Stellaria (Stellaria) | degree of damage to the plants, maize (maize) | degree of damage to the plants, wheat (wheat) | activity against weeds compared with the known compounds (A) and (B) (weeds [7]) | compatibility with crop plants compared with the known compounds (A) and (B) [8] | activity against weeds compared with the known compounds (A) to (G) (weeds [9]) | tolerance by crop plants [10] | degree of damage to the plants, Bromus (Bromus [11]) | degree of damage to the plants, Echinochloa (Echinochloa) | degree of damage to the plants, Setaria (Setaria [12]) | degree of damage to the plants, Amaranthus (Amaranthus) | degree of damage to the plants, Setaria (Setaria [14]) | degree of damage to the plants, Solanum (Solanum) | further results |
| --- | --- | --- | --- | --- | --- | --- | --- | --- | --- | --- | --- | --- | --- | --- | --- | --- | --- | --- | --- | --- | --- |
| COC(=O)c1csc(C)c1S(=O)(=O)NC(=O)n1nc(C)n(C2CC2)c1=O [Example 46] | 80% | 80% | 90% | 95% | 95% | 90% | 100% | 100% | 0% | 50% | considerably stronger activity against weeds | substantially better compatibility with crop plants | considerably stronger activity against weeds | tolerated well by crop plants | – | – | – | – | – | – | degree of damage to the plants, soybeans (soybeans): 0% |
| CCOn1c(CC)nn(C(=O)NS(=O)(=O)c2c(C(=O)OC)csc2C)c1=O [Example 39] | – | 90% | 95% | 95% | – | 95% | – | 100% | – | 0% | considerably stronger activity against weeds | substantially better compatibility with crop plants | considerably stronger activity against weeds | tolerated well by crop plants | 95% | 100% | 95% | 100% | 100% | 95% | degree of damage to the plants, Digitaria (Digitaria [13]): 100% |
| CCCc1nn(C(=O)NS(=O)(=O)c2c(C(=O)OC)csc2C)c(=O)n1C [Example 15] | 95% | 90% | 100% | 80% | 100% | 95% | – | 100% | 0% | 0% | considerably stronger activity against weeds | substantially better compatibility with crop plants | considerably stronger activity against weeds | tolerated well by crop plants | 80% | 90% | 90% | – | – | 95% | degree of damage to the plants, Bromus (Bromus [15]): 90%; degree of damage to the plants, Polygonum (Polygonum): 90%; degree of damage to the plants, Xanthium (Xanthium): 95% |
| COCc1nn(C(=O)NS(=O)(=O)c2c(C(=O)OC)csc2C)c(=O)n1C1CC1 [Example 45] | – | 90% | 100% | 95% | – | 100% | 100% | 100% | – | – | considerably stronger activity against weeds | substantially better compatibility with crop plants | considerably stronger activity against weeds | tolerated well by crop plants | 90% | 100% | 90% | 100% | 100% | – | degree of damage to the plants, Avena fatua (Avena fatua [16]): 95%; degree of damage to the plants, Polygonum (Polygonum): 95% |
